Laboratory results as given in patent US20060247320A1, “Compounds for inhibiting KSP kinesin activity” (priority 2005, published 2006).
Read-outs that look alike come from different tables or passages of the source.

How the values were obtained:
KSP motor domain = target: T1, KSP motor domain (Homo sapiens, UniProt P52732); test: biochemical; conditions: read-out: IC50
T1 sequence (P52732 18-359 limits assumed): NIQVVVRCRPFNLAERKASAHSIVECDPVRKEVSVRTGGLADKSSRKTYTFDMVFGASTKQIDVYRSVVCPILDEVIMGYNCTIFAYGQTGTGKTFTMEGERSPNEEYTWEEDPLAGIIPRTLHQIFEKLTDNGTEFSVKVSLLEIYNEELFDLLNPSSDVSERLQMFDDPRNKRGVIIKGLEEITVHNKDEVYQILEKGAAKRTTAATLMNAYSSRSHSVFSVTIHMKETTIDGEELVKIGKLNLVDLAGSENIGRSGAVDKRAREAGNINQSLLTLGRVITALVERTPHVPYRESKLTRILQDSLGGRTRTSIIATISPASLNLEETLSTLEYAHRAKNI

[1] = KSP inhibitory activity, end-point assay, class symbols (Table 1)

| melting point [°C] | SMILES | IC50 (KSP motor domain; [1]) [nM] | IC50 (KSP motor domain; exact IC50 values, end-point assay (Table 2)) [nM] |
| --- | --- | --- | --- |
| 84 to 86 | CCOC(=O)c1nc2cc3c(nc2s1)CCC(C(C)(C)C)C3 (racemic) | – | – |
| – | CC(C)(C)OC(=O)N1CCc2nc3sc(C#N)c(N)c3cc2C1 [Example 42] | > 10000 | – |
| – | CC(C)(C)C1CCc2nc3sc(C(=O)NO)cc3cc2C1 (centres unmarked) [Example 104, 6-tert-Butyl-5,6,7,8-tetrahydrothieno[2,3-b]quinoline-2-carboxylic acid hydroxyamide] | < 100 | – |
| – | Cn1ccnc1C(=O)Nc1cccc([C@@H](CN)NC(=O)c2cc3cc4c(nc3s2)CC[C@@H](C(C)(C)C)C4)c1 [Example 250] | < 100 | 19 |
